20 molecules from patent US9422293B2 (priority 2006, dated 2016) can be followed below.

As a reminder, the IC50 is the point on the concentration scale where inhibition reaches its midpoint.

Counter-ions that a name gives are not always drawn.

This test deals with rat TRPV1 (Rattus norvegicus (Rat), UniProt O35433). Conditions: read-out: Rat IC50.
Chain of rat TRPV1 (O35433 whole entry): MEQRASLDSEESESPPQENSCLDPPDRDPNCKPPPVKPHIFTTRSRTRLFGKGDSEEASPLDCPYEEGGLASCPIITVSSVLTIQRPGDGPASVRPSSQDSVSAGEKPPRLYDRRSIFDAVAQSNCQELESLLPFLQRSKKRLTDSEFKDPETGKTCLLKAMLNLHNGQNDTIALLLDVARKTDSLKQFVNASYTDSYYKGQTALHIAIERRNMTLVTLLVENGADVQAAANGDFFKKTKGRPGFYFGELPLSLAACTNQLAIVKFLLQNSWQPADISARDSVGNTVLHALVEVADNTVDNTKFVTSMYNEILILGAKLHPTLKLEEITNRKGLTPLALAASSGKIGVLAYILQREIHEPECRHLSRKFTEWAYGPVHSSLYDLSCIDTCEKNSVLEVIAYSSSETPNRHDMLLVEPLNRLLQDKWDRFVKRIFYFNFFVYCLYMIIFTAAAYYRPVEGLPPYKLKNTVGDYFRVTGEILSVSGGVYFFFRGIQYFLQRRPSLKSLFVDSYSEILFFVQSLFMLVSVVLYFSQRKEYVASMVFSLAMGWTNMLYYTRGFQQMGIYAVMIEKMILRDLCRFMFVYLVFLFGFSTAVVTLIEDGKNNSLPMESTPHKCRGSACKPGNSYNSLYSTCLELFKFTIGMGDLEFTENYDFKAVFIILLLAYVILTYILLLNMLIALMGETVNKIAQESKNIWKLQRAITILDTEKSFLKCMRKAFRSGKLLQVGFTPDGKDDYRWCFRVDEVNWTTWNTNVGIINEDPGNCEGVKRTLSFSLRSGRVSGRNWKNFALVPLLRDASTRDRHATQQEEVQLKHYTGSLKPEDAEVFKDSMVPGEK
Consider `FC(F)(F)c1ccc(Nc2nc(-c3cccs3)nc3c2CCN(c2ncccc2C(F)(F)F)CC3)cc1` [Example 149, 2-(2-Thienyl)-N-[4-(trifluoromethyl)phenyl]-7-[3-(trifluoromethyl)pyridin-2-yl]-6,7,8,9-tetrahydro-5H-pyrimido[4,5-d]azepin-4-amine], for which the IC50 was 0.15 µM.
The result for `FC(F)(F)c1ccc(Nc2nc(-c3ccsc3)nc3c2CCN(c2ncccc2C(F)(F)F)CC3)cc1` [Example 150, 2-(3-Thienyl)-N-[4-(trifluoromethyl)phenyl]-7-[3-(trifluoromethyl)pyridin-2-yl]-6,7,8,9-tetrahydro-5H-pyrimido[4,5-d]azepin-4-amine] reads 0.2 µM; that for `Cc1ccc(Nc2nc(C(C)C)nc3c2CCN(c2ncccc2C(F)(F)F)CC3)cc1` [Example 151, 2-(1-Methylethyl)-N-(4-methylphenyl)-7-[3-(trifluoromethyl)pyridin-2-yl]-6,7,8,9-tetrahydro-5H-pyrimido[4,5-d]azepin-4-amine hydrochloride salt], 0.82 µM; that for `CC(C)c1nc2c(c(Nc3ccc(S(=O)(=O)N4CCCC4)cc3)n1)CCN(c1ncccc1C(F)(F)F)CC2` [Example 152, 2-(1-Methylethyl)-N-[4-(pyrrolidin-1-ylsulfonyl)phenyl]-7-[3-(trifluoromethyl)pyridin-2-yl]-6,7,8,9-tetrahydro-5H-pyrimido[4,5-d]azepin-4-amine], 0.55 µM.
As for `CC(C)c1nc2c(c(Nc3ccc(S(=O)(=O)N(C)C)cc3)n1)CCN(c1ncccc1C(F)(F)F)CC2` [Example 154, N,N-Dimethyl-4-({2-(1-methylethyl)-7-[3-(trifluoromethyl)pyridin-2-yl]-6,7,8,9-tetrahydro-5H-pyrimido[4,5-d]azepin-4-yl}amino)benzenesulfonamide], the figure is 1.14 µM; as for `CC(C)c1nc2c(c(Nc3ccc(C(F)(F)F)cc3F)n1)CCN(c1ncccc1C(F)(F)F)CC2` [Example 155, N-[2-Fluoro-4-(trifluoromethyl)phenyl]-2-(1-methylethyl)-7-[3-(trifluoromethyl)pyridin-2-yl]-6,7,8,9-tetrahydro-5H-pyrimido[4,5-d]azepin-4-amine], 3.28 µM.
The result for `CC(=O)c1ccc(Nc2nc(N3CCCCC3)nc3c2CCN(c2ncccc2C(F)(F)F)CC3)cc1` [Example 156, 1-[4-({2-Piperidin-1-yl-7-[3-(trifluoromethyl)pyridin-2-yl]-6,7,8,9-tetrahydro-5H-pyrimido[4,5-d]azepin-4-yl}amino)phenyl]ethanone] reads 0.59 µM.
For `Fc1cc(Nc2nc(N3CCCCC3)nc3c2CCN(c2ncccc2C(F)(F)F)CC3)ccc1C(F)(F)F` [Example 157, N-[3-Fluoro-4-(trifluoromethyl)phenyl]-2-piperidin-1-yl-7-[3-(trifluoromethyl)pyridin-2-yl]-6,7,8,9-tetrahydro-5H-pyrimido[4,5-d]azepin-4-amine], the IC50 was determined as 0.07 µM.
The result for `CN(C)S(=O)(=O)c1ccc(Nc2nc(N3CCCCC3)nc3c2CCN(c2ncccc2C(F)(F)F)CC3)cc1` [Example 158, N,N-Dimethyl-4-({2-piperidin-1-yl-7-[3-(trifluoromethyl)pyridin-2-yl]-6,7,8,9-tetrahydro-5H-pyrimido[4,5-d]azepin-4-yl}amino)benzenesulfonamide] reads 0.06 µM; that for `CC(C)(C)c1ccc(Nc2nc(N3CCCCC3)nc3c2CCN(c2ncccc2C(F)(F)F)CC3)cc1[N+](=O)[O-]` [Example 159, N-[4-(1,1-Dimethylethyl)-3-nitrophenyl]-2-piperidin-1-yl-7-[3-(trifluoromethyl)pyridin-2-yl]-6,7,8,9-tetrahydro-5H-pyrimido[4,5-d]azepin-4-amine], 0.03 µM; that for `CSc1ccc(Nc2nc(N3CCCCC3)nc3c2CCN(c2ncccc2C(F)(F)F)CC3)cc1` [Example 160, N-[4-(Methylsulfanyl)phenyl]-2-piperidin-1-yl-7-[3-(trifluoromethyl)pyridin-2-yl]-6,7,8,9-tetrahydro-5H-pyrimido[4,5-d]azepin-4-amine], 0.1 µM.
Turning to `CC(C)c1nc2c(c(Nc3ccc4c(c3)N(C)CCC4)n1)CCN(c1ncccc1C(F)(F)F)CC2` [Example 161, [2-Isopropyl-7-(3-trifluoromethyl-pyridin-2-yl)-6,7,8,9-tetrahydro-5H-pyrimido[4,5-d]azepin-4-yl]-(1-methyl-1,2,3,4-tetrahydro-quinolin-7-yl)-amine], the IC50 was 0.13 µM.
As for `CC(C)c1nc2c(c(Nc3ccc4c(c3)N(C)CCC4(C)C)n1)CCN(c1ncccc1C(F)(F)F)CC2` [Example 162, [2-Isopropyl-7-(3-trifluoromethyl-pyridin-2-yl)-6,7,8,9-tetrahydro-5H-pyrimido[4,5-d]azepin-4-yl]-(1,4,4-trimethyl-1,2,3,4-tetrahydro-quinolin-7-yl)-amine], the figure is 0.03 µM; as for `CN1CCCc2ccc(Nc3nc(N4CCCCC4)nc4c3CCN(c3ncccc3C(F)(F)F)CC4)cc21` [Example 163, (1-Methyl-1,2,3,4-tetrahydro-quinolin-7-yl)-[2-piperidin-1-yl-7-(3-trifluoromethyl-pyridin-2-yl)-6,7,8,9-tetrahydro-5H-pyrimido[4,5-d]azepin-4-yl]-amine hydrochloride salt], 0.12 µM.
The result for `CN1CCC(C)(C)c2ccc(Nc3nc(N4CCCCC4)nc4c3CCN(c3ncccc3C(F)(F)F)CC4)cc21` [Example 164, [2-Piperidin-1-yl-7-(3-trifluoromethyl-pyridin-2-yl)-6,7,8,9-tetrahydro-5H-pyrimido[4,5-d]azepin-4-yl]-(1,4,4-trimethyl-1,2,3,4-tetrahydro-quinolin-7-yl)-amine hydrochloride salt] reads 0.02 µM; that for `CC(C)c1nc2c(c(Nc3ccc(N4CCCC4)nc3)n1)CCN(c1ncccc1C(F)(F)F)CC2` [Example 165, [2-Isopropyl-7-(3-trifluoromethyl-pyridin-2-yl)-6,7,8,9-tetrahydro-5H-pyrimido[4,5-d]azepin-4-yl]-(6-pyrrolidin-1-yl-pyridin-3-yl)-amine], 2.25 µM.
The result for `Fc1cc(C(F)(F)F)ccc1Nc1nc(N2CCCCC2)nc2c1CCN(c1ncccc1C(F)(F)F)CC2` [Example 166] reads 0.38 µM.
As to `FC(F)(F)c1ccc(Nc2nc(-c3ccncc3)nc3c2CCN(c2ncccc2C(F)(F)F)CC3)cc1` [Example 167, 2-Pyridin-4-yl-N-[4-(trifluoromethyl)phenyl]-7-[3-(trifluoromethyl)pyridin-2-yl]-6,7,8,9-tetrahydro-5H-pyrimido[4,5-d]azepin-4-amine trifluoroacetic acid salt], the IC50 stood at 0.37 µM.
As for `CC(C)(C)c1ccc(Nc2nc(-c3ccncc3)nc3c2CCN(c2ncccc2C(F)(F)F)CC3)cc1` [Example 168, N-[4-(1,1-Dimethylethyl)phenyl]-2-pyridin-4-yl-7-[3-(trifluoromethyl)pyridin-2-yl]-6,7,8,9-tetrahydro-5H-pyrimido[4,5-d]azepin-4-amine trifluoroacetic acid salt], the IC50 was determined as 0.03 µM.
Regarding `FC(F)(F)c1ccc(Nc2nc(-c3ccncc3)nc3c2CCN(c2ncccc2C(F)(F)F)CC3)cc1Cl` [Example 169, N-[3-Chloro-4-(trifluoromethyl)phenyl]-2-pyridin-4-yl-7-[3-(trifluoromethyl)pyridin-2-yl]-6,7,8,9-tetrahydro-5H-pyrimido[4,5-d]azepin-4-amine], the IC50 was 1.01 µM.
